Test [1] deals with ApoB-100-associated lipoproteins. Briefly: Inhibition of the release of ApoB-100-associated lipoproteins from HepG2 cells (immunoassay for human LDL). In kind it is cell-based. The following applies: light absorption 450 nm vs solvent control. How it is done:
The test for detecting inhibition of the release of ApoB-100-associated lipoproteins from liver cells was carried out in vitro using cultured liver cells, preferably using cells of the human line HepG2. These cells are grown under standard conditions in medium for the culture of eucaryotic cells, preferably in RPMI 1640 using 10% foetal calf serum. HepG2 cells synthesize and secrete into the culture supernatant ApoB-100-associated lipoprotein particles which in principle are synthesized in a similar manner to the VLDL and LDL particles which are to be found in the plasma.
These particles can be detected using an immunoassay for human LDL. This immunoassay is carried out using antibodies which have been induced in the rabbit against human LDL under standard conditions. The anti-LDL antibodies (rabbit anti-LDL-Ab) were purified by affinity chromatography on an immunosorbent using human LDL. These purified rabbit anti-LDL Ab are adsorbed on the surface of plastic. Expediently, this adsorption is carried out on the plastic surface of microtitre plates having 96 wells, preferably on MaxiSorp plates. If ApoB-100-associated particles are present in the supernatant of Hep-G2 cells, these can bind to the insolubilized rabbit anti-LDL Ab, and an immune complex is formed which is bound to the plastic surface. Unbound proteins are removed by washing. The immune complex located on the plastic surface is detected using monoclonal antibodies which have been induced against human LDL according to standard conditions and purified. These antibodies were conjugated with the enzyme peroxidase. Peroxidase converts the colourless substrate TMB into a coloured product in the presence of H2 O2. After acidification of the reaction mixture using H2 SO4, the specific light absorption at 450 mn is determined, which is a measure of the amount of ApoB-100-associated particles which have been secreted into the culture supernatant by the HepG2 cells.
The IC50 value indicates at which substance concentration the light absorption is inhibited by 50% in comparison with the control (solvent control without substance).

Test [2] deals with intestinal triglyceride absorption. Briefly: Inhibition of intestinal triglyceride absorption in vivo (rats). Details: species or system male Wistar rats. The following applies: po; for Absorption ED50 or % inhibition: 2 h; for ED50: Rattus norvegicus, serum triglyceride increase 2 h after triglyceride loading, fasting rats, read-out: Absorption ED50 or % inhibition. On the procedure:
The substances which are to be investigated for their triglyceride absorption-inhibiting action in vivo are administered orally to male Wistar rats having a body weight of between 170 and 230 g. For this purpose, the animals are divided into groups of 6 animals 18 hours before administration of the substance and the feed is then withdrawn from them. Drinking water is available to the animals ad libitum. The animals of the control groups receive an aqueous tragacanth suspension or a tragacanth suspension which contains olive oil. The tragacanth-olive oil suspension is prepared using an Ultra-Turrax. The substances to be investigated are suspended directly before substance administration in a corresponding tragacanth-olive oil suspension, also using an Ultra-Turrax.
Before stomach tube application, blood is taken from each rat by puncture of the retroorbital venous plexus to determine the basal serum triglyceride content. The tragacanth suspension, the tragacanth-olive oil suspensions without substance (control animals) and the substances suspended in a corresponding tragacanth-olive oil suspension are then administered to the fasting animals using a stomach tube. Further taking of blood for the determination of the postprandial serum triglyceride rise is carried out, as a rule, 1,2 and 3 hours after stomach tube application.
The blood samples are centrifuged and, after recovering the serum, the triglycerides are determined photometrically using an EPOS analyzer 5060 (Eppendorf Geratebau, Netheler & Hinz GmbH, Hamburg). The triglycerides are determined by fully enzymatic means using a commercially available UV test.
The postprandial serum triglyceride increase is determined by subtraction of the triglyceride preliminary value of each animal from its corresponding postprandial triglyceride concentrations (1,2 and 3 hours after administration).
The differences (in mmol/l) at each time 1, 2 and 3 hours) are averaged in the groups, and the average values of the serum triglyceride increase (ΔTG) of the substance-treated animals are compared with the animals which only received the tragacanth-oil suspension.
Likewise, the serum triglyceride course of the control animals which received only tragacanth is calculated. The substance effect at each time (1, 2 or 3 hours) is determined as follows and given in Δ% of the oil-loaded control. [formula]
Effect of 10 mg of test substance/kg of body weight p.o. on the triglyceride increase (Δ%) 2 h after a triglyceride loading in the serum of fasting rats. The serum triglyceride increase of fat-loaded control animals based on the serum triglyceride level of tragacanth control animals corresponds to 100%. n=6 animals per group.
Statistical assessment was carried out using student3 s t test after prior checking of the variances for homogeneity.

Test [3] deals with VLDL secretion. Briefly: Inhibition of VLDL secretion in vivo (rat) (Triton rat). To be noted: Rattus norvegicus, po, 2 h; for inhibition in vivo at 3 mg/kg: 3 mg/kg p.o., (n.s.) for 112, 114, 117, 154, 175, 176, 227, read-out: Triton rat % TG inhibition (p.o.) 2 h after substance. On the procedure:
The action of the test substances on VLDL secretion is also investigated in the rat. To do this, 500 mg/kg of body weight (2.5 ml/kg) of Triton WR-1339, dissolved in physiological saline solution, are administered to rats intravenously in the tail vein. Triton WR-1339 inhibits lipoprotein lipase and thus leads through inhibition of VLDL catabolism to an increase in the triglyceride and cholesterol level. These increases can be used as a measure of the VLDL secretion rate.
Blood is taken from the animals before and one and two hours after administration of the detergent by puncture of the retroorbital venous plexus. The blood is incubated at room temperature for 1 h for clotting and the serum is recovered by centrifugation at 10,000 g for 20 s. The triglycerides are then determined photometrically at a wavelength of 540 nm by means of a commercially available coupled enzyme test (Sigma Diagnostics®, No. 339). Measurement is carried out with the aid of a likewise coupled enzyme test (Boehringer Mannheim®, No. 1442350) at a wavelength of 546 nm. Samples with triglyceride or cholesterol concentrations which exceed the measuring range of the methods are diluted with physiological saline solution. The respective serum concentrations are determined with the aid of standard series measured in parallel. Test substances are administered orally, intravenously or subcutaneously immediately after the Triton injection.

For test [4], the system named is VLDL secretion. Description: Determination of VLDL secretion in vivo in the hamster (Triton hamster). Details: species or system golden hamster. The following applies: 6 mg/kg i.v. How it is done:
The effects of the test substances on VLDL secretion in vivo is investigated in the hamster. To do this, golden hamsters are anaesthetized with Ketavet (83 mg/kg s.c.) and Nembutal (50 mg/kg i.p.) after premedication with atropine ([…] s.c.). When the animals have become reflex-free, the jugular vein is exposed and cannulated. 0.25 ml/kg of a 20% strength solution of Triton WR 1339 in physiological saline solution is then administered. This detergent inhibits the lipoprotein lipase and thus leads to an increase in the triglyceride level as a result of lack of catabolism of secreted VLDL particles. This triglyceride increase can be used as a measure of the VLDL secretion rate. Blood is taken from the animals before and one and two hours after administration of the detergent by puncture of the retroorbital venous plexus. The blood is incubated for two hours at room temperature, then overnight at 4° C. in order to finish clotting completely. […] The triglyceride concentration in the serum thus obtained is determined with the aid of a modified commercially available enzyme test (Merckotest® triglyceride No. 14354). […] The optical density is then determined at a wavelength of 492 nm in an automatic plate-reading apparatus (SLT spectra). […] The triglyceride concentration contained in the samples is determined with the aid of a standard curve measured in parallel. […]

The mark [5] stands for this setting: Homo sapiens, HepG2, HepG2 cells.

For `Cn1c(=O)c2c(nc(-c3ccsc3)n2Cc2ccc(C(C(=O)N[C@@H](CO)c3ccccc3)C3CCCC3)cc2)n(C)c1=O` (some centres unmarked) [Example 154], in test [1] (setting [5]), half-maximal inhibition (IC50) required 3 nM. For the same compound, in test [2], the “Absorption ED50 or % inhibition” value is below 2 mg/kg. Further, the inhibition in vivo at 3 mg/kg in the test with VLDL secretion [3] was -4%.
`Cn1c(=O)c2c(nc(-c3ccccc3)n2Cc2ccc(C(C(=O)N[C@@H](CO)c3ccccc3)C3CCCC3)cc2)n(C)c1=O` (single isomer, unassigned) [Example 130] gave an IC50 in test [1] (HepG2 cells) of 25 nM. Moreover, the ED50 in test [2] came to 5 mg/kg. Besides, the inhibition in vivo at 20 mg/kg in the test with VLDL secretion [3] (20 mg/kg p.o., read-out: Triton rat % TG inhibition (p.o.) 2 h after substance) came out at 36%.
In turn, `Cn1c(=O)c2c(ncn2Cc2ccc(C(C(=O)N[C@@H](CO)c3ccccc3)C3CCCC3)cc2)n(C)c1=O` (single isomer, unassigned) [Example 114] showed a 50% inhibitory concentration (IC50) in test [1] (HepG2 cells) of 39 nM. Moreover, in test [2], the ED50 was below 2 mg/kg. Moreover, the inhibition in vivo at 3 mg/kg in the test on VLDL secretion [3] was determined as 14.1%.
On to `Cn1c(=O)c2c(nc(-c3cccs3)n2Cc2ccc(C(C(=O)N[C@@H](CO)c3ccccc3)C3CCCC3)cc2)n(C)c1=O` (some centres unmarked) [Example 157], for which, in test [1] (setting [5]), half-maximal inhibition (IC50) was put at 8 nM. The “Absorption ED50 or % inhibition” value in test [2] was above 2 mg/kg. Further, the inhibition in vivo at 3 mg/kg with VLDL secretion [3] is 11.3%.
In test [1] (HepG2 cells), `Cn1c(=O)c2c(nc(Br)n2Cc2ccc(C(C(=O)N[C@@H](CO)c3ccccc3)C3CCCC3)cc2)n(C)c1=O` (single isomer, unassigned) [Example 117] yielded a half-maximal inhibitory concentration (IC50) of 3 nM. Moreover, the ED50 in test [2] was 3 mg/kg. For the same compound, in the test with VLDL secretion [3], the inhibition in vivo at 3 mg/kg stood at 25%.
For `Cn1c(=O)c2c(nc(CCc3ccccc3)n2Cc2ccc(C(C(=O)N[C@@H](CO)c3ccccc3)C3CCCC3)cc2)n(C)c1=O` (stereo partly drawn) [Example 227, 2-(R&S)-Cyclopentyl-2-[4-(1,3-dimethyl-2,6-dioxo-8-(2-phenyl-ethyl)-1,2,3,6-tetra-hydro-purin-7-yl-methyl)phenyl]acet-N-[1-(R)-1-phenyl-2-hydroxy-ethyl)amide], in test [1] (setting [5]), the half-maximal inhibitory concentration (IC50) was 40 nM. For the same compound, the “Absorption ED50 or % inhibition” value in test [2] is above 6 mg/kg. The inhibition in vivo at 3 mg/kg in the test with VLDL secretion [3] is -8%.
`Cc1ccc(-c2nc3c(c(=O)n(C)c(=O)n3C)n2Cc2ccc(C(C(=O)N[C@@H](CO)c3ccccc3)C3CCCC3)cc2)cc1` (single isomer, unassigned) [Example 136] returned an IC50 in test [1] (HepG2 cells) of 23 nM. Moreover, the “Absorption ED50 or % inhibition” value in test [2] is reported as 2 mg/kg. Also, the inhibition in vivo at 3 mg/kg in the test on VLDL secretion [3] is 28%.
For `Cn1c(=O)c2c(nc(Cc3ccccc3)n2Cc2ccc(C(C(=O)N[C@@H](CO)c3ccccc3)C3CCCCCC3)cc2)n(C)c1=O` (single isomer, unassigned) [Example 175], the IC50 in test [1] (setting [5]) is 32 nM. Moreover, the inhibition in vivo at 3 mg/kg in the test on VLDL secretion [3] was 9.8%.
For `Cn1c(=O)c2c(nc(Cc3ccccc3)n2Cc2ccc(C(C(=O)N[C@@H](CO)c3ccccc3)C3CCCC3)cc2)n(C)c1=O` (single isomer, unassigned) [Example 169], it took 3 nM to reach half-maximal inhibition in test [1] (HepG2 cells) (IC50). The “Absorption ED50 or % inhibition” value in test [2] is 2 mg/kg. Besides, the inhibition in vivo at 3 mg/kg in the test on VLDL secretion [3] was 28%. Moreover, the inhibition in vivo at 5 mg/kg in the test on VLDL secretion [3] (5 mg/kg p.o., read-out: Triton rat % TG inhibition (p.o.) 2 h after substance) was found to be 41%. Also, in the test on VLDL secretion [3] (10 mg/kg p.o., read-out: Triton rat % TG inhibition (p.o.) 2 h after substance), the inhibition in vivo at 10 mg/kg was 59.4%.
With `Cc1ccc(-c2nc3c(c(=O)n(C)c(=O)n3C)n2Cc2ccc(C(C(=O)N[C@@H](CO)c3ccccc3)C3CCCC3)cc2)cc1` (some centres unmarked) [Example 112], it took 4 nM to reach half-maximal inhibition in test [1] (setting [5]) (IC50). Also, the ED50 in test [2] was 3 mg/kg. Also, in the test with VLDL secretion [3], the inhibition in vivo at 3 mg/kg turned out to be 17%.
In test [1] (setting [5]), `Cn1c(=O)c2c(nc(-c3ccccc3)n2Cc2ccc(C(C(=O)N[C@@H](CO)c3ccccc3)C3CCCC3)cc2)n(C)c1=O` (some centres unmarked) [Example 129] returned a half-inhibitory concentration (IC50) of 34 nM. Also, the “Triton hamster % CH inhibition 2 h after substance” value in the test with VLDL secretion [4] (cholesterol) was 25%. For the same compound, in the test with VLDL secretion [4] (triglycerides), the “Triton hamster % TG inhibition 2 h after substance” value is reported as 25%. In addition, the ED50 in test [2] turned out to be 20 mg/kg.

The IC50 is the midpoint of a concentration-inhibition curve. Read a low IC50 as greater potency in that assay. In general, ED50 refers to the midpoint of the dose-response relation.

These data come from patent US5714494A, “Xanthines in the 7th position with a benzyl acetic acid moiety” (Bayer Aktiengesellschaft, priority 1995, dated 1998).
